Data reported in patent US6544985B2, “Dihydro-benzo [b][1,4]diazepin-2-one derivatives” (Hoffman-La Roche Inc., priority 2001, dated 2003).

How the values were obtained:
[1] = target: T1, recombinant rat mGluR2 expressed in CHO cells (Rattus norvegicus, UniProt P31421); experiment: [3H]-LY354740 binding on mGlu2 transfected CHO cell membranes (displacement binding assay)
T1 construct: expressed in transfected cells; vector pcDNA I-amp, construct pcD1mGR2
T1 sequence (P31421 19-872): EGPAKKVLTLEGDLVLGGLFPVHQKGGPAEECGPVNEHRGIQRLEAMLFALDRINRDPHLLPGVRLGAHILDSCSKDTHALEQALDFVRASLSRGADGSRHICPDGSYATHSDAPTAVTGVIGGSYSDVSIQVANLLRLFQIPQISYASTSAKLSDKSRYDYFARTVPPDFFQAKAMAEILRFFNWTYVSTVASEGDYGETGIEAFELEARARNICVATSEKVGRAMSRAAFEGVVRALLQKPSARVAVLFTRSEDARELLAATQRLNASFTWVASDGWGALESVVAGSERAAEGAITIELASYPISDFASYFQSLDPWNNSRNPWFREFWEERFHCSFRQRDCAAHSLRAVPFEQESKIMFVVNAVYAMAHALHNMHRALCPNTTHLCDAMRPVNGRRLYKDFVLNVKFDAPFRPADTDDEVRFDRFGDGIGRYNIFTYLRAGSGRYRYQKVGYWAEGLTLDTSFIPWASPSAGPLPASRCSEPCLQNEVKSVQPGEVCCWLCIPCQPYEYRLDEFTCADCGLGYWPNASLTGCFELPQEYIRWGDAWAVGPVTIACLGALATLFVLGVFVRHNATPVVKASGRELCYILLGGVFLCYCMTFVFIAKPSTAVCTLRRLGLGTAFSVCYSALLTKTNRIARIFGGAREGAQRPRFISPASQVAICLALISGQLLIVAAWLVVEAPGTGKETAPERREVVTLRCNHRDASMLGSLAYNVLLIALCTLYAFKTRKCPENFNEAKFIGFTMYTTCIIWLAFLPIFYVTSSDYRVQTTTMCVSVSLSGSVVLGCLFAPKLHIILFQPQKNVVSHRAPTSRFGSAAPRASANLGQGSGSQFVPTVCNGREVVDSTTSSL

Row | Compound | Ki [1] [µM] | melting point [°C]
1 | CC(C)CN(C)c1cc2c(cc1Cl)NC(=O)CC(c1cccc(-c3nc(CO)cs3)c1)=N2 [Example 186, 8-Chloro-4-[3-(4-hydroxymethyl-thiazol-2-yl)-phenyl]-7-(isobutyl-methyl-amino)-1,3-dihydro-benzo[b][1,4]diazepin-2-one] | 0.003 | 135 to 136
2 | CN(C)c1cc2c(cc1C(F)(F)F)NC(=O)CC(c1cccc(-c3nnc(CO)s3)c1)=N2 [Example 204, 7-Dimethylamino-4-[3-(5-hydroxymethyl-[1,3,4]thiadiazol-2-yl)-phenyl]-8-trifluoromethyl-1,3-dihydro-benzo[b][1,4]diazepin-2-one] | 0.017 | 242 to 246
3 | CCCc1oc(C)nc1-c1cccc(C2=Nc3cc(N(C)C)c(C(F)(F)F)cc3NC(=O)C2)c1 [Example 212, 7-Dimethylamino-4-[3-(2-methyl-5-propyl-oxazol-4-yl)-phenyl]-8-trifluoromethyl-1,3-dihydro-benzo[b][1,4]diazepin-2-one] | 0.046 | 211 to 212
4 | CCCN(C)c1cc2c(cc1C(F)(F)F)NC(=O)CC(c1cccc(-c3nnc(CO)s3)c1)=N2 [Example 222, 4-[3-(5-Hydroxymethyl-[1,3,4]thiadiazol-2-yl)-phenyl]-7-(methyl-propyl-amino)-8-trifluoromethyl-1,3-dihydro-benzo[b][1,4]diazepin-2-one] | 0.008 | 193 to 194

The remaining lines, values ahead:

Row | Ki [1] [µM] | melting point [°C] | Compound
5 | 0.089 | 195 | CC(C)CN(C)c1cc2c(cc1Cl)NC(=O)CC(c1cccc(-n3ncnc3CO)c1)=N2 [Example 163, 8-Chloro-4-[3-(5-hydroxymethyl-[1,2,4]triazol-1-yl)-phenyl]-7-(isobutyl-methyl-amino)-1,3-dihydro-benzo[b][1,4]diazepin-2-one]
6 | 0.027 | 185 | CCCN(C)c1cc2c(cc1C(F)(F)F)NC(=O)CC(c1cccc(-n3cncn3)c1)=N2 [Example 169]
7 | 0.012 | 198 | CC(C)CN(C)c1cc2c(cc1C(F)(F)F)NC(=O)CC(c1cccc(-n3cncn3)c1)=N2 [Example 174, 7-(Isobutyl-methyl-amino)-4-(3-[1,2,4]triazol-1-yl-phenyl)-8-trifluoromethyl-1,3-dihydro-benzo[b][1,4]diazepin-2-one]
8 | 0.48 | 122 to 123 | CCNc1nc(-c2cccc(C3=Nc4cc(N(C)C)c(Cl)cc4NC(=O)C3)c2)cs1 [Example 195, 8-Chloro-7-dimethylamino-4-[3-(2-ethylamino-thiazol-4-yl)-phenyl]-1,3-dihydro-benzo[b][1,4]diazepin-2-one]
